≈ marks a conversion by molar mass, not a printed value. Like-named read-outs stand apart in the source and are kept apart here.
Legend:
[1] = system: motor coordination; test: Rotarod test; format: in vivo, mouse; details: mice, 100 mg/kg, 60 min pretreatment; 6, 18 and 24 rpm
Method: For in vivo tests that assessed anticonvulsant properties of the test compounds 3a–3j adult male Albino Swiss (CD-1) mice weighing between 18 and 22 g were used. The animals were housed in groups of ten mice per cage at room temperature of 22 ± 2 °C, under light/dark (12:12) cycle. The animals had free access to food and tap water before the experiments. The ambient temperature of the experimental room and humidity (50 ± 10%) were kept consistent throughout all the tests. For behavioral experiments the animals were selected randomly. Each experimental group consisted of 4–8 animals/dose. The experiments were performed between 9 AM and 2 PM. Immediately after the in vivo assay the animals were euthanized by cervical dislocation. All procedures were approved by the Local Ethics Committee of the Jagiellonian University in Krakow (34/2018, 1.02.2018)) and the treatment of animals was in full accordance with ethical standards laid down in respective Polish and EU regulations (Directive No. 86/609/EEC). For in vivo tests the compounds 3a–3j were prepared in 1% Tween 80 solution (POCH, Poland) and they were administered by the intraperitoneal route. Control mice received 1% Tween 80. Pentylenetetrazole (PTZ), pilocarpine hydrochloride and scopolamine butylbromide were provided by Sigma Aldrich (Poland). For the tests they were prepared in 0.9% saline (Polfa Kutno, Poland). PTZ and pilocarpine were administered 60 min after the test compound or vehicle. To assess anticonvulsant properties of the test compounds anticonvulsant screening was conducted. Four assays were used: PTZ, maximal electroshock seizure (MES), 6-Hz and pilocarpine tests. In these assays the dose of 100 mg/kg was chosen as a starting dose. If it turned out to be effective, a lower dose (30 mg/kg) was also tested. The test was performed according to the method recently described (Sałat et al. [2005]). The mice were trained daily for 3 consecutive days on the rotarod apparatus (Rotarod apparatus, May Commat RR0711, Turkey; rod diameter: 2 cm) rotating at a constant speed of 18 rotations per minute (rpm). During each training session, the animals were placed on a rotating rod for 3 min with an unlimited number of trials. The proper experimentation was conducted 24 h after the final training trial. […] Motor impairments, defined as the inability to remain on the rotating rod for 1 min were measured and mean time spent on the rod was counted in each experimental group.

[2] = system: C. glabrata; test: Broth microdilution MIC/MFC, clinical isolate; format: cell-based; details: C. glabrata clinical strain
Description: (§1) In the study of antifungal activity of the compounds 3a–3j, 15 clinical strains of different species of yeasts from Candida species, namely C. albicans, C. dubliniensis C. famata, C. inconspicua, C. krusei, C. tropicalis, C. glabrata, C. lambica, C. kefyr, C. lusitaniae, C. parapsilosis, C. guilliermondii, C. lusitaniae, C. pulcherrima and C. sake were also used. These fungi were isolated by the author (from Department of Pharmaceutical Microbiology of Medical University in Lublin, Poland) from different clinical materials, e.g., from upper respiratory tract of hospitalized patients including cancer patients (i.e., with non-small cell lung cancer or hematological malignancies). Some patients were after pre-operative or post-operative chemotherapy (treated with etoposide or cis-platin given in doses according to the standard procedures), patients with chronic hepatitis C (undergoing peginterferon and ribavirin therapy or without antiviral therapy), patients with diabetes, elderly people, aged of 65 years old or older, staying in close population, such as a care centre and people staying outside the home care. The Ethical Committee of the Medical University of Lublin approved the study protocol (No. KE-0254/75/2011). The isolates were identified by standard diagnostic methods—biochemical microtest, e.g., API 20C AUX, ID 32C, API Candida (bioMérieux) on the basis of assimilation of various substrates. All the used microbial cultures were first subcultured on nutrient agar or Sabouraud agar for bacteria and fungi, respectively. The RPMI 1640 with MOPS (for fungi) were inoculated with the suspensions of fungal species. Microbial suspensions were prepared in sterile saline (0.85% NaCl) with an optical density of 0.5 McFarland standard scale (Wiegand et al. [2008]). Samples containing examined compounds were dissolved in dimethyl sulfoxide (DMSO). Furthermore, fungal suspensions were put onto Petri dishes with solid media containing 2 mg/ml of the tested compounds followed incubation under appropriate conditions. The inhibition of microbial growth was judged by comparison with a control culture prepared without any sample tested. Nystatin (Sigma) was used as a reference antifungal compound. Subsequently MIC minimal inhibitory concentration (MIC) of the compounds was examined by the microdilution broth method, using their two-fold dilutions in RPMI 1640 broth with MOPS prepared in 96-well polystyrene plates. Final concentrations of the compounds ranged from 1000 to 0.0038 µg/ml. Microbial suspensions were prepared in sterile saline with an optical density of 0.5 McFarland standard. Next fungal suspension was added per each well containing broth and various concentrations of the examined compounds. After incubation, the MIC was assessed spectrophotometric as the lowest concentration of the samples showing complete fungal growth inhibition. Appropriate DMSO, growth and sterile controls were carried out. The medium with no tested substances was used as a control (Wiegand et al. [2008]). The minimal fungicidal concentration (MFC) are defined as the lowest concentration of the compounds that is required to kill a particular fungal species. MFC was determined by removing the culture using for MIC determinations from each well and spotting onto appropriate agar medium. The plates were incubated. The lowest compounds concentration with no visible growth observed was assessed as a fungicidal concentration. All the experiments were repeated three times and representative data are presented.
(§2) The MFC/MIC ratios were calculated in order to determine fungicidal (MFC/MIC ≤ 4) or fungistatic (MFC/MIC > 4) effect of the tested compounds (O’Donnell et al. [2010]).

[3] = system: C. inconspicua; test: Broth microdilution MIC/MFC, clinical isolate; format: cell-based; details: C. inconspicua clinical strain
Description: as §1, §2

[4] = system: C. kefyr; test: Broth microdilution MIC/MFC, clinical isolate; format: cell-based; details: C. kefyr clinical strain
Description: as §1, §2

[5] = system: C. lambica; test: Broth microdilution MIC/MFC, clinical isolate; format: cell-based; details: C. lambica clinical strain
Description: as §1, §2

[6] = system: C. parapsilosis; test: Broth microdilution MIC/MFC, clinical isolate; format: cell-based; details: C. parapsilosis clinical strain
Description: as §1, §2

[7] = system: C. tropicalis; test: Broth microdilution MIC/MFC, clinical isolate; format: cell-based; details: C. tropicalis clinical strain
Description: as §1, §2

[8] = Nakaseomyces glabratus, read-out: MFC
[9] = Nakaseomyces glabratus, read-out: MIC
[10] = Pichia inconspicua, read-out: MFC
[11] = Pichia inconspicua, read-out: MIC
[12] = Kluyveromyces marxianus, read-out: MFC
[13] = Kluyveromyces marxianus, read-out: MIC
[14] = Pichia fermentans, read-out: MFC
[15] = Pichia fermentans, read-out: MIC
[16] = Lodderomyces parapsilosis, read-out: MFC
[17] = Lodderomyces parapsilosis, read-out: MIC
[18] = Candida tropicalis, read-out: MFC
[19] = Candida tropicalis, read-out: MIC

Row | MIC [2, 9] [µg/mL] | MIC [3, 11] [µg/mL] | MIC [4, 13] [µg/mL] | MIC [5, 15] [µg/mL] | MIC [6, 17] [µg/mL] | MIC [7, 19] [µg/mL] | SMILES | motor coordination (time spent on rotarod) [1] | MFC [2, 8] [µg/mL] | MFC [3, 10] [µg/mL] | MFC [4, 12] [µg/mL] | MFC [5, 14] [µg/mL] | MFC [6, 16] [µg/mL] | MFC [7, 18] [µg/mL] | further results
1 |  |  |  |  |  |  | FC(F)(F)c1ccc(-c2csc(N/N=C/C3CC3)n2)cc1 [Compound 3e, (E)-2-(2-(Cyclopropylmethylene)hydrazinyl)-4-(4-(trifluoromethyl)phenyl)thiazole] | None of these compounds impaired motor skills |  |  |  |  |  |  | 
2 |  |  |  |  |  |  | C[C@@H]1[C@H](O)[C@@H](C)/C=C/C=C/CC/C=C/C=C/C=C/C=C/C(O[C@H]2O[C@H](C)[C@@H](O)[C@H](N)[C@@H]2O)CC2O[C@](O)(CC(O)C(O)CCC(O)CC(O)CC(O)CC(=O)O[C@H]1C)CC(O)C2C(=O)O (stereo partly shown) [Nystatin, reference compound] |  |  |  |  |  |  |  | MFC [2]: 0.48 µg/mL (≈ 0.518 µM); MFC/MIC [2]: 1; MIC [2]: 0.48 µg/mL (≈ 0.518 µM); MFC [3]: 0.48 µg/mL (≈ 0.518 µM); MFC/MIC [3]: 4; MIC [3]: 0.12 µg/mL (≈ 0.13 µM); MFC [4]: 0.24 µg/mL (≈ 0.259 µM); MFC/MIC [4]: 2; MIC [4]: 0.12 µg/mL (≈ 0.13 µM); MFC [5]: 0.98 µg/mL (≈ 1.06 µM); MFC/MIC [5]: 2; MIC [5]: 0.48 µg/mL (≈ 0.518 µM); MFC [6]: 0.48 µg/mL (≈ 0.518 µM); MFC/MIC [6]: 4; MIC [6]: 0.12 µg/mL (≈ 0.13 µM); MFC [7]: 0.06 µg/mL (≈ 0.0648 µM); MFC/MIC [7]: 4; MIC [7]: 0.015 µg/mL (≈ 0.0162 µM)
3 | 15.6 (≈ 55.9 µM) | 0.48 (≈ 1.72 µM) | 31.2 (≈ 112 µM) | 125 (≈ 448 µM) | 0.98 (≈ 3.51 µM) | 0.06 (≈ 0.215 µM) | Fc1ccc(-c2csc(N/N=C/C3CC3)n2)c(F)c1 [Compound 3g, (E)-2-(2-(Cyclopropylmethylene)hydrazinyl)-4-(2,4-difluorophenyl)thiazole] |  | > 1000 | 1.98 (≈ 7.09 µM) | 31.2 (≈ 112 µM) | > 1000 | 1.95 (≈ 6.98 µM) | 0.98 (≈ 3.51 µM) | 
4 | 125 (≈ 466 µM) | 0.24 (≈ 0.894 µM) | 7.81 (≈ 29.1 µM) | 125 (≈ 466 µM) | 1.95 (≈ 7.27 µM) | 0.03 (≈ 0.112 µM) | N#Cc1ccc(-c2csc(N/N=C/C3CC3)n2)cc1 [Compound 3h, (E)-4-(2-(2-(Cyclopropylmethylene)hydrazinyl)thiazol-4-yl)benzonitrile] |  | > 1000 | 0.48 (≈ 1.79 µM) | 125 (≈ 466 µM) | > 1000 | 31.2 (≈ 116 µM) | 0.98 (≈ 3.65 µM) | 
5 | 31.2 (≈ 110 µM) | 0.48 (≈ 1.69 µM) | 7.81 (≈ 27.5 µM) |  | 0.24 (≈ 0.844 µM) | 0.24 (≈ 0.844 µM) | [N-]=[N+]=Nc1ccc(-c2csc(N/N=C/C3CC3)n2)cc1 [Compound 3i, (E)-4-(4-Azidophenyl)-2-(2-(cyclopropylmethylene)hydrazinyl)thiazole] | None of these compounds impaired motor skills | > 1000 | 0.98 (≈ 3.45 µM) | > 1000 |  | 0.98 (≈ 3.45 µM) | 1.95 (≈ 6.86 µM) | 
6 | 125 (≈ 434 µM) | 0.98 (≈ 3.4 µM) | 125 (≈ 434 µM) | 250 (≈ 867 µM) | 0.48 (≈ 1.66 µM) | 0.015 (≈ 0.052 µM) | O=[N+]([O-])c1ccc(-c2csc(N/N=C/C3CC3)n2)cc1 [Compound 3j, (E)-2-(2-(Cyclopropylmethylene)hydrazinyl)-4-(4-nitrophenyl)thiazole] |  | > 1000 | 1.95 (≈ 6.76 µM) | > 1000 | > 1000 | 1.95 (≈ 6.76 µM) | 0.015 (≈ 0.052 µM) | 
7 | 62.5 (≈ 194 µM) | 0.24 (≈ 0.745 µM) | 15.6 (≈ 48.5 µM) |  | 0.12 (≈ 0.372 µM) | 0.06 (≈ 0.186 µM) | Brc1ccc(-c2csc(N/N=C/C3CC3)n2)cc1 [Compound 3b, (E)-4-(4-Bromophenyl)-2-(2-(cyclopropylmethylene)hydrazinyl)thiazole] |  | > 1000 | 3.91 (≈ 12.1 µM) | > 1000 |  | 0.12 (≈ 0.372 µM) | 0.12 (≈ 0.372 µM) | 
8 |  | 1.95 (≈ 7.46 µM) |  |  | 3.91 (≈ 15 µM) | 0.98 (≈ 3.75 µM) | Fc1ccc(-c2csc(N/N=C/C3CC3)n2)cc1 [Compound 3a, (E)-2-(2-(Cyclopropylmethylene)hydrazinyl)-4-(4-fluorophenyl)thiazole] |  |  | 3.91 (≈ 15 µM) |  |  | 7.81 (≈ 29.9 µM) | 1.95 (≈ 7.46 µM) | 
9 | 15.6 (≈ 60.7 µM) | 0.12 (≈ 0.466 µM) | 1.95 (≈ 7.58 µM) | 15.6 (≈ 60.7 µM) | 0.06 (≈ 0.233 µM) | 0.06 (≈ 0.233 µM) | Cc1ccc(-c2csc(N/N=C/C3CC3)n2)cc1 [Compound 3d, (E)-2-(2-(Cyclopropylmethylene)hydrazinyl)-4-p-tolylthiazole] |  | > 1000 | 0.98 (≈ 3.81 µM) | 7.81 (≈ 30.3 µM) | > 1000 | 0.24 (≈ 0.933 µM) | 0.12 (≈ 0.466 µM) | 
10 | 500 (≈ 1800 µM) | 0.98 (≈ 3.53 µM) | 31.2 (≈ 112 µM) | 125 (≈ 450 µM) | 0.03 (≈ 0.108 µM) | 0.12 (≈ 0.432 µM) | Clc1ccc(-c2csc(N/N=C/C3CC3)n2)cc1 [Compound 3c, (E)-4-(4-Chlorophenyl)-2-(2-(cyclopropylmethylene)hydrazinyl)thiazole] | None of these compounds impaired motor skills | > 1000 | 3.91 (≈ 14.1 µM) | > 1000 | > 1000 | 0.12 (≈ 0.432 µM) | 0.12 (≈ 0.432 µM) | 

Row | SMILES | MIC [2, 9] [µg/mL] | MIC [3, 11] [µg/mL] | MIC [4, 13] [µg/mL] | MIC [5, 15] [µg/mL] | MIC [6, 17] [µg/mL] | MIC [7, 19] [µg/mL] | motor coordination (time spent on rotarod) [1] | MFC [2, 8] [µg/mL] | MFC [3, 10] [µg/mL] | MFC [4, 12] [µg/mL] | MFC [5, 14] [µg/mL] | MFC [6, 16] [µg/mL] | MFC [7, 18] [µg/mL] | further results
11 | COc1ccc(-c2csc(N/N=C/C3CC3)n2)cc1 [Compound 3f, (E)-2-(2-(Cyclopropylmethylene)hydrazinyl)-4-(4-methoxyphenyl)thiazole] | 31.2 (≈ 114 µM) | 0.03 (≈ 0.11 µM) | 1.95 (≈ 7.13 µM) | 31.2 (≈ 114 µM) | 0.12 (≈ 0.439 µM) | 0.06 (≈ 0.219 µM) | None of these compounds impaired motor skills | > 1000 | 0.98 (≈ 3.59 µM) | 7.81 (≈ 28.6 µM) | > 1000 | 0.98 (≈ 3.59 µM) | 0.98 (≈ 3.59 µM) | MFC/MIC [4]: 4

From paper PMC6133161, “Thiazoles with cyclopropyl fragment as antifungal, anticonvulsant, and anti-Toxoplasma gondii agents: synthesis, toxicity evaluation, and molecular docking study” (Medicinal Chemistry Research, 2018)
